# In PubChem BioAssay (NCI):
#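 These data come from cells grown in 96-well plates and exposed to compound for 48 hours at five concentrations. TGI: concentration producing complete growth inhibition.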
# How the values were obtained:
# Test in all cases: DTP human tumour cell line panel, 48 h
# [1] = system: 786-0 renal
# [2] = system: ACHN renal
# [3] = system: HCT-15 colon
# [4] = system: HOP-92 NSCLC
# [5] = system: NCI-H226 lung
# [6] = system: NCI-H23 lung
# [7] = system: NCI-H522 lung
# [8] = system: OVCAR-5 ovarian
# [9] = system: SF-268 CNS
# [10] = system: SK-OV-3 ovarian
# [11] = system: SN12C renal
# [12] = system: SW-620 colon
# [13] = system: TK-10 renal
# [14] = system: U251 CNS
# [15] = system: XF 498 CNS
# [16] = system: A498 renal
# [17] = system: BT-549 breast
# [18] = system: HS 578T breast
# [19] = system: MDA-MB-435
# [20] = system: T-47D breast
SMILES,TGI [1] [µM],TGI [2] [µM],TGI [3] [µM],TGI [4] [µM],TGI [5] [µM],TGI [6] [µM],TGI [7] [µM],TGI [8] [µM],TGI [9] [µM],TGI [10] [µM],TGI [11] [µM],TGI [12] [µM],TGI [13] [µM],TGI [14] [µM],TGI [15] [µM],TGI [16] [µM],TGI [17] [µM],TGI [18] [µM],TGI [19] [µM],TGI [20] [µM]
COc1ccc(/C=N/N=C(\N)NO)cc1F,48.5,45.3,> 100,76.2,41.4,81,87.1,97.2,66.7,> 100,> 100,> 100,> 100,> 100,96,–,–,–,–,–
O=C1C[C@@H]2[C@@H](c3ccccc3)[C@@H]3C(=O)c4ccccc4NC(=O)[C@H]3[C@]2(O)c2ccccc2N1,> 100,> 100,> 100,–,> 100,> 100,> 100,> 100,> 100,–,> 100,> 100,> 100,> 100,> 100,–,–,–,–,–
CCOC(=O)C1=C(O)C(=O)c2ccoc2C1=O,> 100,> 100,> 100,> 100,> 100,> 100,> 100,> 100,> 100,> 100,> 100,> 100,> 100,> 100,> 100,> 100,–,–,–,–
Cc1cc(N(CCC#N)CCC#N)ccc1/C=C(\NC(=O)/C=C/c1ccccc1)C(=O)Nc1ccc(Cl)cc1,> 100,> 100,> 100,> 100,> 100,> 100,> 100,> 100,> 100,> 100,> 100,> 100,> 100,> 43.9,> 100,> 100,> 100,> 100,> 100,> 100
NCCCC(N=Cc1nc(-c2ccccc2)oc1O)C(=O)O (stereo not given),> 100,> 100,> 100,> 100,> 100,> 100,> 100,> 100,> 100,> 100,> 100,> 100,> 100,> 100,> 100,> 100,–,–,–,–
CCCCCCCCCCCCCCCCCCOCC(C[N+]1(C)CCC(O)CC1)OCC (stereo not given),19.4,–,–,4.49,21.4,16,31,–,15,8.22,15.4,35.5,20.5,–,29,54.9,–,–,–,–
CC(=O)N1C(CCc2ccccc2)CC(C)(C=O)C1Cc1ccc(O[Si](C(C)C)(C(C)C)C(C)C)cc1 (stereo not given),6.43,18.8,10.7,23.7,19.9,24.3,5.95,28.8,15.8,29.3,9.06,14.4,13.7,13.3,–,14.3,29.7,8.96,8.39,12.9
C[C@H](CCC(=O)NCCS(=O)(=O)O)[C@H]1CC[C@H]2[C@@H]3[C@H](O)C[C@@H]4C[C@H](O)CC[C@]4(C)[C@H]3CC[C@]12C,> 100,> 100,> 100,> 100,> 100,> 100,> 100,> 100,> 100,> 100,> 100,> 100,> 100,> 100,–,> 100,> 100,> 100,> 100,> 100
